According to US20240182945A1, “PRODUCTS FOR REGULATION OF EUKARYOTIC AND MICROBIAL CELLS GROWTH” (priority 2021, published 2024):

Tests used:
R. dentocariosa = experiment: Growth of microbial modulator alone on antibiotic-supplemented Columbia agar; format: cell-based; conditions: Bacterial set #2; Cefepime (16 μg/mL); Columbia agar with erythrocytes 5%, 24 h at 37 C
B. pumilus = experiment: as above; format: cell-based; conditions: Bacterial set #2; Cefepime (16 μg/mL); Columbia agar with erythrocytes 5%, 24 h at 37 C
A. ursingii = experiment: as above; format: cell-based; conditions: Bacterial set #2; Cefepime (16 μg/mL); Columbia agar with erythrocytes 5%, 24 h at 37 C
[1] = test system: bacteria of the biosample (persisters); experiment: Neutropenic mice instilled with biosample and treated with antibiotic for 72 h, microbial growth in organs and blood; format: in vivo; conditions: neutropenic C57BL/6 mice treated for 72 h, agar with 100 ug/mL of the antibiotic
Method: Next, we confirmed that antibiotics selected with proposed algorithm are effective. Adult C57BL/6 mice were rendered neutropenic by injecting cyclophosphamide subcutaneously 4 days before infection (150 mg/kg of body weight), 1 day before infection (100 mg/kg), and 1 day after infection (100 mg/kg). Mice were anesthetized with 2% isoflurane and orally instilled with biosample (stored at +4 C). Briefly, nares were blocked, and mice aspirated 50 μL of the biosample into the lungs while being held vertically for 60 s.

[2] = cited from earlier work
[3] = test system: bacteria of sputum from patients with lung diseases; experiment: Standard antibiotic susceptibility study using the microbroth dilution method (Algorithm #3); format: cell-based; further: key: '+'—presence of bacterial growth, antibiotic ineffective; '−'—absence of bacterial growth, antibiotic effective
Description: Algorithm #3—Standard antibiotic susceptibility study using the microbroth dilution method.

[4] = test system: MIX—PP +BM (P. aeruginosa with microbial modulators); experiment: Growth of mix PP + MM (original sputum) on antibiotic-supplemented Columbia agar; format: cell-based; conditions: Bacterial set #2; Cefepime (16 μg/mL); Columbia agar with erythrocytes 5%, 24 h at 37 C
P. aeruginosa = experiment: Growth of primary pathogen alone on antibiotic-supplemented Columbia agar; format: cell-based; conditions: Bacterial set #2; Cefepime (16 μg/mL); Columbia agar with erythrocytes 5%, 24 h at 37 C
Method: Four sputum samples from patients with lung infections were used. Pure bacterial culture of each microorganisms was obtained by routine microbiological methods.
In this case this antibiotic at MIC of 16 ug/mL was used in the following studies. PP alone, or Microbial Modulators (MM) alone or the original sputum were plated on the wells of 24 well plate filled with nutrient Columbia agar supplemented with erythrocytes 5% and supplemented with antibiotics taken as MIC determined against PP, but not more than 16 μg/mL and incubated 24 h at 37 C.

[5] = test system: S.aureus (PP) and MM in sputum from children with pneumonia; experiment: Degree of eradication of PP and MM on Columbia agar with antibiotic at concentrations achievable at the site of infection; format: cell-based; parameters: key to Degree of primary pathogen eradication, evaluation of ABEPP: % of primary pathogen (PP) eliminated
Method: We next tried to select antibiotics based on building a probability model. Antibiotic efficacy was evaluated based on a novel parameters: • ABEPPMM100—antibiotic concentration that is required for the elimination of 100% “complex” PP+MM. • ABEPPMM99—antibiotic concentration that is required for the elimination of 99% “complex” PP+MM.
ABEPPMM90—antibiotic concentration that is required for the elimination of 90% “complex” PP+MM.
ABEPPMM50—antibiotic concentration that is required for the elimination of 50% “complex” PP+MM.
ABEPP100—antibiotic concentration that affecting on “complex” PP+MM is required for the elimination of 100% PP.
ABEPP99—antibiotic concentration that affecting on “complex” PP+MM is required for the elimination of 99% PP.
ABEPP90—antibiotic concentration that affecting on “complex” PP+MM is required for the elimination of 90% PP.
ABEPP50—antibiotic concentration that affecting on “complex” PP+MM is required for the elimination of 50% PP.
We used sputum from children with pneumonia, with S.aureus as confirmed PP. Patient 1—child • Patient 2—child • Patient 3—child

[6] = Patient 1, C0-1 h, 24 h of growth
[7] = Patient 1, C0-2 h, 24 h of growth
[8] = Patient 1, C0-3 h, 24 h of growth
[9] = Patient 1, C0-4 h, 24 h of growth
[10] = Patient 1, C0-6 h, 24 h of growth
[11] = Patient 1, C0-8 h, 24 h of growth
[12] = Patient 1, C0-12 h, 24 h of growth
[13] = Patient 1, C0-24 h, 24 h of growth
[14] = Patient 1, C2-3 h, 24 h of growth
[15] = Patient 1, C3-4 h, 24 h of growth
[16] = Patient 1, C4-6 h, 24 h of growth
[17] = Patient 1, C6-8 h, 24 h of growth
[18] = Patient 1, C8-12 h, 24 h of growth
[19] = Patient 1, C12-24 h, 24 h of growth
[20] = Patient 1, Cmax × 2, 24 h of growth
[21] = Patient 2, C0-3 h, 24 h of growth
[22] = Patient 2, C0-4 h, 24 h of growth
[23] = Patient 2, C0-6 h, 24 h of growth
[24] = Patient 2, C0-8 h, 24 h of growth
[25] = Patient 2, C0-12 h, 24 h of growth
[26] = Patient 2, C0-24 h, 24 h of growth
[27] = Patient 2, C3-4 h, 24 h of growth
[28] = Patient 2, C4-6 h, 24 h of growth
[29] = Patient 2, C6-8 h, 24 h of growth
[30] = Patient 2, C8-12 h, 24 h of growth
[31] = Patient 2, C12-24 h, 24 h of growth
[32] = Patient 3, C0-3 h, 24 h of growth
[33] = Patient 3, C0-4 h, 24 h of growth
[34] = Patient 3, C0-6 h, 24 h of growth
[35] = Patient 3, C0-8 h, 24 h of growth
[36] = Patient 3, C0-12 h, 24 h of growth
[37] = Patient 3, C0-24 h, 24 h of growth
[38] = Patient 3, C3-4 h, 24 h of growth
[39] = Patient 3, C4-6 h, 24 h of growth
[40] = Patient 3, C6-8 h, 24 h of growth
[41] = Patient 3, C8-12 h, 24 h of growth
[42] = Patient 3, C12-24 h, 24 h of growth

CO/N=C(\C(=O)N[C@@H]1C(=O)N2C(C(=O)[O-])=C(C[N+]3(C)CCCC3)CS[C@H]12)c1csc(N)n1 [Cefepime]
microbial growth, RD (BM alone) (R. dentocariosa): −
microbial growth, BP (BM alone) (B. pumilus): +
microbial growth, AU (BM alone) (A. ursingii): +
Number of animals with positive microbial growth on the agar with antibiotics/total number of animals per group ([1]; Blood): 4/8
Number of animals with positive microbial growth on the agar with antibiotics/total number of animals per group ([1]; Liver): 2/8
Number of animals with positive microbial growth on the agar with antibiotics/total number of animals per group ([1]; Lungs): 3/8
lung concentration after 8 h of administration ([2]; 8 h): 23 µg/mL
lung concentration after 12 h of administration ([2]; 12 h): 8 µg/mL
ATB efficacy [3]: +
microbial growth, MIX (PP + MM) [4]: −
microbial growth, PA (PP alone) (P. aeruginosa): +
Degree of primary pathogen eradication, evaluation of ABEPP [5, 6]: 100
Degree of primary pathogen eradication, evaluation of ABEPPMM [5, 6]: 100
Degree of primary pathogen eradication, evaluation of ABEPP [5, 7]: 100
Degree of primary pathogen eradication, evaluation of ABEPPMM [5, 7]: 100
Degree of primary pathogen eradication, evaluation of ABEPP [5, 8]: 100
Degree of primary pathogen eradication, evaluation of ABEPPMM [5, 8]: 100
Degree of primary pathogen eradication, evaluation of ABEPP [5, 9]: 100
Degree of primary pathogen eradication, evaluation of ABEPPMM [5, 9]: 100
Degree of primary pathogen eradication, evaluation of ABEPP [5, 10]: 100
Degree of primary pathogen eradication, evaluation of ABEPPMM [5, 10]: 100
Degree of primary pathogen eradication, evaluation of ABEPP [5, 11]: 50
Degree of primary pathogen eradication, evaluation of ABEPPMM [5, 11]: 50
Degree of primary pathogen eradication, evaluation of ABEPP [5, 12]: 00
Degree of primary pathogen eradication, evaluation of ABEPPMM [5, 12]: 00
Degree of primary pathogen eradication, evaluation of ABEPP [5, 13]: 0
Degree of primary pathogen eradication, evaluation of ABEPPMM [5, 13]: 0
Degree of primary pathogen eradication, evaluation of ABEPP [5, 14]: 100
Degree of primary pathogen eradication, evaluation of ABEPPMM [5, 14]: 100
Degree of primary pathogen eradication, evaluation of ABEPP [5, 15]: 100
Degree of primary pathogen eradication, evaluation of ABEPPMM [5, 15]: 100
Degree of primary pathogen eradication, evaluation of ABEPP [5, 16]: 100
Degree of primary pathogen eradication, evaluation of ABEPPMM [5, 16]: 100
Degree of primary pathogen eradication, evaluation of ABEPP [5, 17]: 100
Degree of primary pathogen eradication, evaluation of ABEPPMM [5, 17]: 100
Degree of primary pathogen eradication, evaluation of ABEPP [5, 18]: 50
Degree of primary pathogen eradication, evaluation of ABEPPMM [5, 18]: 00
Degree of primary pathogen eradication, evaluation of ABEPP [5, 19]: 00
Degree of primary pathogen eradication, evaluation of ABEPPMM [5, 19]: 00
Degree of primary pathogen eradication, evaluation of ABEPP [5, 20]: 100
Degree of primary pathogen eradication, evaluation of ABEPPMM [5, 20]: 100
Degree of primary pathogen eradication, evaluation of ABEPP [5, 21]: 90
Degree of primary pathogen eradication, evaluation of ABEPPMM [5, 21]: 90
Degree of primary pathogen eradication, evaluation of ABEPP [5, 22]: 50
Degree of primary pathogen eradication, evaluation of ABEPPMM [5, 22]: 50
Degree of primary pathogen eradication, evaluation of ABEPP [5, 23]: 50
Degree of primary pathogen eradication, evaluation of ABEPPMM [5, 23]: 50
Degree of primary pathogen eradication, evaluation of ABEPP [5, 24]: 50
Degree of primary pathogen eradication, evaluation of ABEPPMM [5, 24]: 50
Degree of primary pathogen eradication, evaluation of ABEPP [5, 25]: 50
Degree of primary pathogen eradication, evaluation of ABEPPMM [5, 25]: 50
Degree of primary pathogen eradication, evaluation of ABEPP [5, 26]: 0
Degree of primary pathogen eradication, evaluation of ABEPPMM [5, 26]: 0
Degree of primary pathogen eradication, evaluation of ABEPP [5, 27]: 50
Degree of primary pathogen eradication, evaluation of ABEPPMM [5, 27]: 50
Degree of primary pathogen eradication, evaluation of ABEPP [5, 28]: 50
Degree of primary pathogen eradication, evaluation of ABEPPMM [5, 28]: 50
Degree of primary pathogen eradication, evaluation of ABEPP [5, 29]: 50
Degree of primary pathogen eradication, evaluation of ABEPPMM [5, 29]: 50
Degree of primary pathogen eradication, evaluation of ABEPP [5, 30]: 50
Degree of primary pathogen eradication, evaluation of ABEPPMM [5, 30]: 50
Degree of primary pathogen eradication, evaluation of ABEPP [5, 31]: 0
Degree of primary pathogen eradication, evaluation of ABEPPMM [5, 31]: 0
Degree of primary pathogen eradication, evaluation of ABEPP [5, 32]: 90
Degree of primary pathogen eradication, evaluation of ABEPPMM [5, 32]: 90
Degree of primary pathogen eradication, evaluation of ABEPP [5, 33]: 90
Degree of primary pathogen eradication, evaluation of ABEPPMM [5, 33]: 90
Degree of primary pathogen eradication, evaluation of ABEPP [5, 34]: 90
Degree of primary pathogen eradication, evaluation of ABEPPMM [5, 34]: 90
Degree of primary pathogen eradication, evaluation of ABEPP [5, 35]: 0
Degree of primary pathogen eradication, evaluation of ABEPPMM [5, 35]: 0
Degree of primary pathogen eradication, evaluation of ABEPP [5, 36]: 0
Degree of primary pathogen eradication, evaluation of ABEPPMM [5, 36]: 0
Degree of primary pathogen eradication, evaluation of ABEPP [5, 37]: 0
Degree of primary pathogen eradication, evaluation of ABEPPMM [5, 37]: 0
Degree of primary pathogen eradication, evaluation of ABEPP [5, 38]: 90
Degree of primary pathogen eradication, evaluation of ABEPPMM [5, 38]: 90
Degree of primary pathogen eradication, evaluation of ABEPP [5, 39]: 90
Degree of primary pathogen eradication, evaluation of ABEPPMM [5, 39]: 90
Degree of primary pathogen eradication, evaluation of ABEPP [5, 40]: 0
Degree of primary pathogen eradication, evaluation of ABEPPMM [5, 40]: 0
Degree of primary pathogen eradication, evaluation of ABEPP [5, 41]: 0
Degree of primary pathogen eradication, evaluation of ABEPPMM [5, 41]: 0
Degree of primary pathogen eradication, evaluation of ABEPP [5, 42]: 0
Degree of primary pathogen eradication, evaluation of ABEPPMM [5, 42]: 0
